The record followed here is patent US20090023773A1, “COMPOSITIONS AND METHODS FOR MODULATING GATED ION CHANNELS” (PainCeptor Pharma Corporation, priority 2007, published 2009).

The target of the assay is T1, hASIC1a (Homo sapiens, UniProt P78348).
T1 construct: expressed in transfected cells
T1 sequence (P78348 1-528): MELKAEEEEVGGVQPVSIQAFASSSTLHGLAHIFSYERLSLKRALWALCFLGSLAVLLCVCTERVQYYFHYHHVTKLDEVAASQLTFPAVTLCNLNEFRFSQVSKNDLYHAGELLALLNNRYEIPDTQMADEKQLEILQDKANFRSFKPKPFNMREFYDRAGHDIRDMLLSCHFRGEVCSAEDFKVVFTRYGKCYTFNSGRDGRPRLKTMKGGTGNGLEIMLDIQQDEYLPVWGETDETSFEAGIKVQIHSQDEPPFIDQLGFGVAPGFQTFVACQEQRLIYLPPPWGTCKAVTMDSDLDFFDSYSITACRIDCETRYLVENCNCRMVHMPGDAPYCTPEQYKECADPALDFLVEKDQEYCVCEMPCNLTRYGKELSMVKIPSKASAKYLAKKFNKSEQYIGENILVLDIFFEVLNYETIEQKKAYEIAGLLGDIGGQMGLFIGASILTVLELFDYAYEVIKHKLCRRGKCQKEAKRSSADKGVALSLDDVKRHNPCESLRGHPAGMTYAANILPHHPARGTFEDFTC
In words: Fluorescent calcium dye (Fluo-4-NW) assay in cells expressing hASIC1a (Example 1). Format: cell-based. The following applies: CHO cells stably expressing hASIC1a, mild acidic buffer, increasing concentrations; FIGS. 1A-1C. On the procedure: ASIC1a expressing CHO cells are grown in culture medium (DMEM with 10% FBS), in polystyrene culture flasks ([…]) at 37° C. in a humidified atmosphere of 5% CO2. Confluency of cells should be 70-90% on day of plating. Cells are rinsed with 10 ml of PBS and cells are re-suspended by addition of culture medium and trituration with a 25 ml pipette. The cells are seeded at a density of approximately 10^4 cells/ml (50 μl/well and then brought to a total volume of 150 μl/well with culture medium, following 30 minutes incubation) in black-walled, clear bottom, 96-well plates pre-treated with poly-D-lysine (from BD Bioscience). Plated cells were allowed to proliferate for 48-72 h before loading with dye. Fluo-4-NW (500 μg, DiscoveRX) is dissolved in 110 μl DMSO. The Fluo-4-NW stock solution (1000×) is diluted with the assay buffer. A water soluble stock solution (100×) of probenicid (DiscoveRX) and a stock solution (1000×) of pluronic acid (P-127, Molecular Probes) are also added in the loading buffer containing Fluo-4NW dye. The culture medium is aspirated from the wells, and 100 μl of the Fluo-4-NW loading solution is added to each well. The cells are incubated at 37° C. for 30 min. followed by 30 min. incubation at room temperature. The assay buffer contains 90 mM NaCl, 5 mM KCl, 4 mM CaCl2, 0.8 mM MgSO4, 50 mM NMDG, 5 mM Glucose-D, 10 mM HEPES, pH 7.4. After the loading time, the loading buffer is not removed and the fluorescence is measured in FlexStation™ (Molecular Devices, USA), or any other suitable equipment known to the skilled in the art. Temperature: 25° C. First addition: 50 μl test solution at a rate of 26 μl/sec and a starting height of 125 μl. […] Reading intervals: pre-incubation—120 sec. antagonist phase, addition of MES at 145 sec. and reading time with agonist 100 sec (total run time of 240 sec.). Fluorescence obtained after stimulation is corrected for the mean basal fluorescence (in modified Assay Buffer). […] Gated-channel activity was determined by measuring intracellular calcium variation using a fluorescent calcium dye (Fluo-4-NW).

For the compound `Cc1cc(OC2CCN(Cc3ccccc3)CC2)c2cc(O)ccc2n1` [Compound 13, 4-(1-benzylpiperidin-4-yloxy)-2-methylquinolin-6-ol], the “inhibition of acid-induced hASIC1a activity (intracellular calcium variation)” value is given as “dose-dependently inhibited”.
